Measured values taken from ChEMBL document CHEMBL1201862, “PubChem BioAssay data set” (2004).
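Assay format: 96-well plates, 48-hour exposure. GI50 marks 50% less growth.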 Activity calls are given as the source filed them. Cut-off read from the data, not from the text of the source: active = GI50 up to about 1.1 µM and inactive = higher.

Experiments:
Test in all cases: NCI tumour cell line growth inhibition, 48 h
[1] = test system: ACHN
[2] = test system: HCT-116
[3] = test system: SR
[4] = test system: RXF 393
[5] = test system: SK-OV-3
[6] = test system: COLO 205
[7] = test system: NCI-H460
[8] = test system: 786-0
[9] = test system: KM12
[10] = test system: OVCAR-3
[11] = test system: A498
[12] = test system: Malme-3M
[13] = test system: T47D
[14] = test system: OVCAR-5
[15] = test system: IGROV-1
[16] = test system: CCRF-CEM
[17] = test system: HCT-15
[18] = test system: DU-145
[19] = test system: UACC-62
[20] = test system: EKVX
[21] = test system: SN12C
[22] = test system: TK-10
[23] = test system: MCF7
[24] = test system: BT-549
[25] = test system: NCI-H522
[26] = test system: OVCAR-4
[27] = test system: HL-60
[28] = test system: A549
[29] = test system: SK-MEL-28
[30] = test system: K562
[31] = test system: SK-MEL-5
[32] = test system: SW-620
[33] = test system: OVCAR-8
[34] = test system: HT-29
[35] = test system: SF-539
[36] = test system: NCI/ADR-RES
[37] = test system: SNB-19
[38] = test system: SF-295
[39] = test system: M14
[40] = test system: MDA-N
[41] = test system: CAKI-1
[42] = test system: NCI-H226
[43] = test system: UACC-257
[44] = test system: NCI-H23
[45] = test system: HOP-92
[46] = test system: SF-268
[47] = test system: MOLT-4
[48] = test system: MDA-MB-435
[49] = test system: SNB-75
[50] = test system: HOP-62
[51] = test system: SK-MEL-2
[52] = test system: MDA-MB-231
[53] = test system: LOX IMVI
[54] = test system: RPMI-8226
[55] = test system: U-251
[56] = test system: Hs-578T
[57] = test system: PC-3
[58] = test system: UO-31
[59] = test system: HCC 2998

Question: `O=C(O)c1ccc(SSc2ccc(C(=O)O)cn2)nc1` was tested. Which GI50 [1] did it give?
Answer: > 100 µM (inactive)

Question: What about the GI50 [2] of the same compound?
Answer: > 100 µM (inactive)

Question: And the GI50 [3]?
Answer: > 100 µM (inactive)

Question: What about the GI50 [4] of the same compound?
Answer: > 100 µM (inactive)

Question: What about the GI50 [5] of the same compound?
Answer: > 100 µM (inactive)

Question: And the GI50 [6]?
Answer: > 100 µM (inactive)

Question: And the GI50 [7]?
Answer: > 100 µM (inactive)

Question: And the GI50 [8]?
Answer: > 100 µM (inactive)

Question: What about the GI50 [9] of the same compound?
Answer: > 100 µM (inactive)

Question: And the GI50 [10]?
Answer: > 100 µM (inactive)

Question: And the GI50 [11]?
Answer: > 100 µM (inactive)

Question: What about the GI50 [12] of the same compound?
Answer: > 100 µM (inactive)

Question: And the GI50 [13]?
Answer: > 100 µM (inactive)

Question: And the GI50 [14]?
Answer: > 100 µM (inactive)

Question: What about the GI50 [15] of the same compound?
Answer: > 100 µM (inactive)

Question: What about the GI50 [16] of the same compound?
Answer: > 100 µM (inactive)

Question: What about the GI50 [17] of the same compound?
Answer: > 100 µM

Question: What about the GI50 [18] of the same compound?
Answer: > 100 µM (inactive)

Question: And the GI50 [19]?
Answer: > 100 µM (inactive)

Question: And the GI50 [20]?
Answer: > 100 µM (inactive)

Question: What about the GI50 [21] of the same compound?
Answer: > 100 µM (inactive)

Question: What about the GI50 [22] of the same compound?
Answer: > 100 µM (inactive)

Question: And the GI50 [23]?
Answer: > 100 µM (inactive)

Question: And the GI50 [24]?
Answer: > 100 µM (inactive)

Question: And the GI50 [25]?
Answer: > 100 µM (inactive)

Question: And the GI50 [26]?
Answer: > 100 µM (inactive)

Question: And the GI50 [27]?
Answer: > 100 µM (inactive)

Question: What about the GI50 [28] of the same compound?
Answer: > 100 µM (inactive)

Question: And the GI50 [29]?
Answer: > 100 µM (inactive)

Question: What about the GI50 [30] of the same compound?
Answer: > 100 µM (inactive)

Question: And the GI50 [31]?
Answer: > 100 µM (inactive)

Question: What about the GI50 [32] of the same compound?
Answer: > 100 µM (inactive)

Question: And the GI50 [33]?
Answer: > 100 µM (inactive)

Question: And the GI50 [34]?
Answer: > 100 µM (inactive)

Question: What about the GI50 [35] of the same compound?
Answer: > 100 µM (inactive)

Question: What about the GI50 [36] of the same compound?
Answer: > 100 µM (inactive)

Question: What about the GI50 [37] of the same compound?
Answer: > 100 µM (inactive)

Question: And the GI50 [38]?
Answer: > 100 µM (inactive)

Question: And the GI50 [39]?
Answer: > 100 µM (inactive)

Question: And the GI50 [40]?
Answer: > 100 µM (inactive)

Question: And the GI50 [41]?
Answer: > 100 µM (inactive)

Question: What about the GI50 [42] of the same compound?
Answer: 72.3 µM (inactive)

Question: And the GI50 [43]?
Answer: > 100 µM (inactive)

Question: And the GI50 [44]?
Answer: > 100 µM (inactive)

Question: What about the GI50 [45] of the same compound?
Answer: > 100 µM (inactive)

Question: And the GI50 [46]?
Answer: > 100 µM (inactive)

Question: And the GI50 [47]?
Answer: > 100 µM (inactive)

Question: What about the GI50 [48] of the same compound?
Answer: > 100 µM (inactive)

Question: And the GI50 [49]?
Answer: > 100 µM (inactive)

Question: What about the GI50 [50] of the same compound?
Answer: > 100 µM (inactive)

Question: What about the GI50 [51] of the same compound?
Answer: > 100 µM (inactive)

Question: And the GI50 [52]?
Answer: > 100 µM (inactive)

Question: And the GI50 [53]?
Answer: > 100 µM (inactive)

Question: And the GI50 [54]?
Answer: > 100 µM (inactive)

Question: What about the GI50 [55] of the same compound?
Answer: > 100 µM (inactive)

Question: What about the GI50 [56] of the same compound?
Answer: > 100 µM (inactive)

Question: What about the GI50 [57] of the same compound?
Answer: > 100 µM (inactive)

Question: Which results are given for `CCOC(=O)c1ccc(Nc2nc3cc(C(F)(F)F)ccc3nc2-c2ccccc2)cc1`?
Answer: GI50 [1]: 17.7 µM (inactive); GI50 [2]: 67.6 µM (inactive); GI50 [3]: > 100 µM (inactive); GI50 [4]: 21.4 µM (inactive); GI50 [6]: 42.7 µM (inactive); GI50 [7]: 45.7 µM (inactive); GI50 [8]: 18.7 µM (inactive); GI50 [9]: 28.4 µM (inactive); GI50 [58]: > 100 µM (inactive); GI50 [10]: 53.6 µM (inactive); GI50 [59]: 22.8 µM (inactive); GI50 [12]: > 100 µM (inactive); GI50 [13]: 35.7 µM (inactive); GI50 [14]: 30.1 µM (inactive); GI50 [15]: 36.1 µM (inactive); GI50 [16]: 43.3 µM (inactive); GI50 [17]: > 100 µM; GI50 [18]: > 100 µM (inactive); GI50 [19]: 11.1 µM (inactive); GI50 [20]: 49.8 µM (inactive); GI50 [21]: 86.1 µM (inactive); GI50 [22]: > 10 µM (inactive); GI50 [23]: 19.8 µM (inactive); GI50 [24]: > 100 µM (inactive); GI50 [25]: 37.6 µM (inactive); GI50 [27]: 50.2 µM (inactive); GI50 [28]: > 100 µM (inactive); GI50 [29]: > 100 µM (inactive); GI50 [30]: > 100 µM (inactive); GI50 [31]: 65 µM (inactive); GI50 [32]: 63.2 µM (inactive); GI50 [33]: 31.3 µM (inactive); GI50 [34]: > 10 µM (inactive); GI50 [35]: 65.5 µM (inactive); GI50 [36]: 70.5 µM (inactive); GI50 [37]: 29.2 µM (inactive); GI50 [38]: 26.7 µM (inactive); GI50 [40]: > 100 µM (inactive); GI50 [41]: 42.9 µM (inactive); GI50 [42]: > 100 µM (inactive); GI50 [43]: > 100 µM (inactive); GI50 [44]: 40.3 µM (inactive); GI50 [46]: > 100 µM (inactive); GI50 [47]: > 10 µM (inactive); GI50 [48]: 69.3 µM (inactive); GI50 [49]: 13.5 µM (inactive); GI50 [50]: 20.9 µM (inactive); GI50 [52]: 79.6 µM (inactive); GI50 [53]: > 100 µM (inactive); GI50 [54]: > 100 µM (inactive); GI50 [55]: 21.9 µM (inactive); GI50 [56]: 36.1 µM (inactive); GI50 [57]: 22.2 µM (inactive)

Question: Which results are given for `NC(=O)CNC(=O)[C@@H]1C[C@@H](OCCC(=O)O)CN1C(=O)OCc1ccccc1`?
Answer: GI50 [1]: > 100 µM (inactive); GI50 [2]: > 100 µM (inactive); GI50 [3]: > 100 µM (inactive); GI50 [4]: > 100 µM (inactive); GI50 [5]: > 100 µM (inactive); GI50 [6]: > 100 µM (inactive); GI50 [7]: > 100 µM (inactive); GI50 [8]: > 100 µM (inactive); GI50 [9]: > 100 µM (inactive); GI50 [58]: > 100 µM (inactive); GI50 [10]: > 100 µM (inactive); GI50 [11]: > 100 µM (inactive); GI50 [12]: > 100 µM (inactive); GI50 [13]: > 100 µM (inactive); GI50 [14]: > 100 µM (inactive); GI50 [15]: > 100 µM (inactive); GI50 [16]: > 100 µM (inactive); GI50 [17]: > 100 µM; GI50 [18]: > 100 µM (inactive); GI50 [19]: > 100 µM (inactive); GI50 [20]: > 100 µM (inactive); GI50 [21]: > 100 µM (inactive); GI50 [22]: > 100 µM (inactive); GI50 [23]: > 100 µM (inactive); GI50 [24]: > 100 µM (inactive); GI50 [25]: > 100 µM (inactive); GI50 [26]: > 100 µM (inactive); GI50 [27]: > 100 µM (inactive); GI50 [28]: > 100 µM (inactive); GI50 [29]: > 100 µM (inactive); GI50 [30]: > 100 µM (inactive); GI50 [31]: > 100 µM (inactive); GI50 [32]: > 100 µM (inactive); GI50 [33]: > 10 µM (inactive); GI50 [34]: > 100 µM (inactive); GI50 [36]: > 100 µM (inactive); GI50 [37]: > 100 µM (inactive); GI50 [38]: > 100 µM (inactive); GI50 [39]: > 100 µM (inactive); GI50 [40]: > 100 µM (inactive); GI50 [42]: > 100 µM (inactive); GI50 [43]: > 100 µM (inactive); GI50 [44]: > 100 µM (inactive); GI50 [46]: > 100 µM (inactive); GI50 [47]: > 100 µM (inactive); GI50 [48]: > 100 µM (inactive); GI50 [49]: > 100 µM (inactive); GI50 [50]: > 100 µM (inactive); GI50 [51]: > 100 µM (inactive); GI50 [52]: > 100 µM (inactive); GI50 [53]: > 100 µM (inactive); GI50 [54]: > 100 µM (inactive); GI50 [55]: > 100 µM (inactive); GI50 [56]: > 100 µM (inactive); GI50 [57]: > 100 µM (inactive)
